Key:
native MORF complex = assay: HAT assay, native MORF complex from K562 cells; assay type: biochemical, Homo sapiens; settings: native WT MORF complex; H3 peptides residues 1–29, 3H-Ac-CoA, pH 8, 30 min at 30 °C; scintillation CPM; n = 2
Procedure: For purification of native complexes, after large-scale expansion of K562 clones, tandem affinity purifications (TAP) of MORF and MOZ complexes were performed on nuclear extracts as previously described[43]. Briefly, nuclear extracts were prepared following standard procedures and precleared with CL6B Sepharose beads.
(§1) The amounts of native (K562) or overexpressed (293T) MORF complexes were normalized empirically following SDS-PAGE and transfer onto nitrocellulose membrane. Anti-FLAG M2 conjugated to horseradish peroxydase (HRP; Sigma) was used at a 1:10,000 dilution and the immunoblots were visualized using a Western Lightning plus-ECL reagent (Perkin-Elmer). Anti-HA-HRP (clone 3F10, Roche) was used at a 1:2000 dilution.

MORFN F287A complex = assay: HAT assay, MORFN F287A complex overexpressed in 293T cells; assay type: biochemical; settings: H3K23ac peptide residues 1–29, 3H-Ac-CoA, pH 8, 30 min at 30 °C, CPM, n = 2
Procedure: Cells were harvested 48 h post-co-transfection and lysed in high-salt buffer (450 mM NaCl, 50 mM Tris-HCl (pH 8.0), 1% TX-100, 2 mM MgCl2, 0.1 mM ZnCl2, 2 mM EDTA, 10% glycerol) supplemented with protease inhibitor mixture. The NaCl concentration was reduced to 225 mM and the whole cell extract centrifuged at 14,000 rpm for 30 min. […] FLAG beads were next washed with the 225 mM NaCl buffer and eluted with 200 μg/ml of 3× FLAG peptide (Sigma).
In Fig. 4e and Supplementary Fig. 7, FLAG-tagged MORF proteins were overexpressed and prepared from transiently transfected 293T cells. Briefly, approximately 2 mg of total cell extract was incubated with 25 μl of M2-agarose beads (Sigma) overnight at 4 °C. […]
Acetyltransferase activity of the purified complexes was measured with 0.125 µCi of ^3H labeled Ac-CoA (2.1 Ci/mmol; PerkinElmer Life Sciences). […] The reactions were then captured on P81 filter paper, the free H3-labeled Ac-CoA was washed away and the paper was analyzed using Liquid Scintillation. […]
In Fig. 4e and Supplementary Fig. 7, purified MORF proteins were incubated at 37 °C for indicated times with peptides (1 μg) and 0.1 mM acetyl-CoA in HAT reaction buffer (50 mM Tris, pH 8.0, 0.1 mM EDTA, 10% glycerol, 1 mM PMSF, and 1 mM DTT) in a total volume of 50 μL. Reactions were quenched by flash-freezing in liquid nitrogen and then analyzed by SDS-PAGE and Western blot.

MORFN complex = assay: HAT assay, WT MORFN complex overexpressed in 293T cells; assay type: biochemical; settings: H3 peptides residues 1–29, 3H-Ac-CoA, pH 8, 30 min at 30 °C, CPM, n = 2
From the text: as §1

H3K23ac: H3 peptide (residues 1–29) pre-acetylated at Lys23
decrease in HAT activity relative to unmodified H3 peptide (native MORF complex): ~ 12 fold
HAT activity of MORFN F287A complex, in words (MORFN F287A complex): substantially reduced residual enzymatic activity
decrease in HAT activity relative to unmodified H3 peptide (MORFN complex; WT MORFN complex (293T)): ~ 7 fold
HAT activity of MORFN complex, in words (MORFN complex; WT MORFN complex): substantially reduced residual enzymatic activity

— PMC6797804, “Histone H3K23-specific acetylation by MORF is coupled to H3K14 acylation” (Nature Communications, 2019)
